Source: ChEMBL document CHEMBL4616633, “Citral Inhibits the Inflammatory Response and Hyperalgesia in Mice: The Role of TLR4, TLR2/Dectin-1, and CB2 Cannabinoid Receptor/ATP-Sensitive K+ Channel Pathways” (J Nat Prod, 2020)
The source made the active and inactive calls. The rule behind the calls is not given here.

How the values were obtained:
Mus musculus [1] = test: Inhibition of carrageenan-induced paw edema in Swiss mouse at 0.5 mg/kg, sc pretreated for 1 hr followed by carrageenan-stimulation and measured after 6 hrs relative to control; format: functional
Mus musculus [2] = test: Inhibition of zymosan-induced TLR2/Dectin-1 Signaling Pathway assessed as reduction in paw edema in Swiss mouse at 0.5 mg/kg, sc pretreated for 1 hr followed by […] and measured after 48 hrs relative to control; format: functional
Mus musculus [3] = test: Inhibition of carrageenan-induced thermal allodynia in Swiss mouse at 0.5 mg/kg, sc pretreated for 1 hr followed by carrageenan-stimulation and measured after 6 hrs relative to control; format: functional
Mus musculus [4] = test: Inhibition of carrageenan-induced paw edema in Swiss mouse at 1.5 mg/kg, ip pretreated for 30 mins followed by carrageenan-stimulation and measured after 6 hrs; format: functional, organism-based
[5] = Psychoactive effect in Swiss mouse assessed as catalepsy effect at 1.5 mg/kg, ip and measured for 6 hrs; format: ADME, organism-based; conditions: in vivo
[6] = Psychoactive effect in Swiss mouse assessed as hypothermic effects at 1.5 mg/kg, ip and measured for 6 hrs by thermometric method; format: ADME, organism-based; conditions: in vivo
[7] = Psychoactive effect in Swiss mouse assessed as reduction in locomotor activity by measuring change in distance travelled at 1.5 mg/kg, ip and measured for 6 hrs; format: ADME, organism-based; conditions: in vivo
[8] = Psychoactive effect in Swiss mouse assessed as antinociceptive effect by measuring paw withdrawal latencies at 1.5 mg/kg, ip and measured for 6 hrs; format: ADME, organism-based; conditions: in vivo

| SMILES | inhibition in vivo at 0.5 mg/kg (Mus musculus [1]) | inhibition in vivo at 0.5 mg/kg (Mus musculus [2]) | inhibition in vivo at 0.5 mg/kg (Mus musculus [3]) | inhibition (Mus musculus [4]) | Activity [5] | Activity [6] | Activity [7] | Activity [8] |
| --- | --- | --- | --- | --- | --- | --- | --- | --- |
| C[C@@H]1C[C@H]2[C@@H]3CCC4=CC(=O)C=C[C@]4(C)[C@@]3(F)[C@@H](O)C[C@]2(C)[C@@]1(O)C(=O)CO [DEXAMETHASONE] | 82% | 45% | 72% |  |  |  |  |  |
| Cc1c(C(=O)c2cccc3ccccc23)c2cccc3c2n1[C@H](CN1CCOCC1)CO3 [WIN-552122] |  |  |  | Active | Toxic | Toxic | Toxic | Toxic |
